Assay results published in PMC10321483 (Chemical Science, 2023).
Several values for one entry are separate records, joined by “and”; a condition that tells them apart may be missing. Equal entries are not always repeated. Where two headings read alike, the source gives them in different places.

How the values were obtained:
LdtMt2 [1] = target: T1, LdtMt2 (Mycobacterium tuberculosis, UniProt I6Y9J2); assay: biochemical; type: biochemical; parameters: made in house; host or cells: E. coli
LdtMt2 [2] = target: T1, LdtMt2; assay: Rate constant of covalent target inactivation (kinact/KI), endpoint competition assay with probe 2; type: biochemical; parameters: made in house; host or cells: E. coli; conditions: for kinact/KI: 100 nM LdtMt2, 10 µM probe 2, 3 h incubation, n=4
LdtMt2 [3] = target: T1, LdtMt2; assay: biochemical; type: binding; parameters: made in house; host or cells: E. coli; conditions: for Tm: melting point of LdtMt2 after pre-incubation with the compound: pH 7.5
Procedure: LdtMt2 (5 μM) was incubated with the inhibitor (500 μM) in assay buffer (50 mM tris pH 7.5) for 30 minutes at room temperature in 96-well white PCR plates (25 μL final volume, Starlab). SYPRO Orange (final concentration 6×, according to manufacturer's definition, Invitrogen) was then added and the plate was sealed using a transparent plastic film (Polyolefin StarSeal, Starlab). Fluorescence was monitored (with λex = 492 nm and λem = 610 nm) using a CFX96 Touch Real-Time PCR Detection System (Bio-Rad), while the temperature was increased from 20 to 95 °C in increments of 0.2 °C. Melting temperatures (Tms) were determined using the CFX Maestro Software (Bio-Rad).

BlaC = target: T2, BlaC (Mycobacterium tuberculosis, UniProt P9WKD3); assay: BlaC fluorogenic inhibition assay with FC5 (dose-response); type: biochemical; conditions: for IC50: read-out: pIC50 BlaC (mean ± SD) (converted)
T2 construct: made in house; host or cells: E. coli
Procedure: Two types of controls were used. […] In control 2, the BlaC mixture was substituted with the assay buffer. This mixture was incubated for 30 minutes at room temperature without shaking. […] Data were analysed using ActivityBase (IDBS).

[4] = Table S3 tool compounds, 10 min incubation, 2.5 nM BlaC, 2.5 µM FC5, n=4
[5] = Table S4 HTS validation, 30 minutes inhibitor pre-incubation, n=8
[6] = Table S4 HTS validation, 30 minutes inhibitor pre-incubation, n=6, read-out: pIC50 LdtMt2 (mean ± SD) (converted)

T1 sequence (I6Y9J2 56-408): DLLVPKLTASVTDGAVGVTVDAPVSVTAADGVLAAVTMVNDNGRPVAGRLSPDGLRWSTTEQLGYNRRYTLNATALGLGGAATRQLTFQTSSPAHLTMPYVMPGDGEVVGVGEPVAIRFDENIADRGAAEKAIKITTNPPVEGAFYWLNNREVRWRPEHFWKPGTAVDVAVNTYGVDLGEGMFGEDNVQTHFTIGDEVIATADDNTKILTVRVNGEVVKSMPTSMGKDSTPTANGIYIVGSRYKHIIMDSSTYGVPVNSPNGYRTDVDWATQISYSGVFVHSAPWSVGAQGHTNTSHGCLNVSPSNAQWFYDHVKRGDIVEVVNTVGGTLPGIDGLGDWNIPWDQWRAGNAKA
T2 sequence (P9WKD3 35-307): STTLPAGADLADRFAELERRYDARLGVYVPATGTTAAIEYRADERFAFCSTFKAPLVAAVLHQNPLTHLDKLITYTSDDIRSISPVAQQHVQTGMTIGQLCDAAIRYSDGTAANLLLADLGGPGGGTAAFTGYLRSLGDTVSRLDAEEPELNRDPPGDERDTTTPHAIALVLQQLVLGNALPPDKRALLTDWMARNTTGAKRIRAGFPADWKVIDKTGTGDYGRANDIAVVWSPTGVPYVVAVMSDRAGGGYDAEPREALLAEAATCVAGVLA

CC(C)(C)OC(=O)Nc1ccc(N2C(=O)C=CC2=O)cc1 [Compound 6]
LE (ligand efficiency) (LdtMt2 [1]): 0.52 | kinact/KI (LdtMt2 [2]): 127 ± 7.7 M⁻¹ s⁻¹ | ΔTm: difference in melting point of LdtMt2 relative to unreacted LdtMt2 (43.8 °C) (LdtMt2 [3]): +1.7 °C | Tm: melting point of LdtMt2 after pre-incubation with the compound (LdtMt2 [3]): 45.5 ± 0.09 °C

CC1(C)S[C@@H]2[C@H](NC(=O)C(C(=O)O)c3ccccc3)C(=O)N2[C@H]1C(=O)O (stereo partly shown) [Carbenicillin, reference compound]
IC50 (BlaC; [4]): > 100000 nM | IC50 (LdtMt2 [1]; pIC50 LdtMt2 (mean ± SD)): > 100000 nM

O=C1OC2(c3ccc(O)cc3Oc3cc(OS(=O)(=O)c4ccc([N+](=O)[O-])cc4[N+](=O)[O-])ccc32)c2ccccc21 (stereo not shown) [probe 2, reference compound]
(kinact/KI)probe (LdtMt2 [2]; from kobs, LdtMt2 100 nM, probe 2 100 nM to 10 μM): 39.8 M⁻¹ s⁻¹

C[C@@H](O)[C@H]1C(=O)N2C(C(=O)[O-])=C(SC3Cn4cnc[n+]4C3)[C@H](C)[C@H]12 (stereo partly shown) [Biapenem, reference compound]
IC50 (BlaC; [4]): 3090 nM | IC50 (BlaC; [5]): 479 nM | IC50 (LdtMt2 [1]; [6]): 2880 nM | IC50 (LdtMt2 [1]; pIC50 LdtMt2 (mean ± SD)): 79400 nM

N#Cn1ccnc1 [Compound 41, reference compound]
pIC50 LdtMt2 (LdtMt2 [1]): 6.54 ± 0.01

O=C(NNC(=O)[C@@H]1CC[C@@H]2CN1C(=O)N2OS(=O)(=O)O)[C@@H]1CCCNC1 [Zidebactam, reference compound]
IC50 (BlaC; [4]): 70800 nM | IC50 (BlaC; [5]): 7240 nM | IC50 (LdtMt2 [1]; [6]): 13200 nM | IC50 (LdtMt2 [1]; pIC50 LdtMt2 (mean ± SD)): 100000 nM

N#Cn1c(-c2ccc3nccnc3c2)nc2ccccc21 [Compound 26]
LE (ligand efficiency) (LdtMt2 [1]): 0.53 | kinact/KI (LdtMt2 [2]): 65.0 ± 4.4 M⁻¹ s⁻¹ | lowered the melting temperature of LdtMt2 by (LdtMt2 [3]): 2.1 °C | ΔTm: difference in melting point of LdtMt2 relative to unreacted LdtMt2 (43.8 °C) (LdtMt2 [3]): -2.1 | Tm: melting point of LdtMt2 after pre-incubation with the compound (LdtMt2 [3]; in °C (unit assumed)): 41.7 ± 0.09

C[C@@H](O)[C@H]1C(=O)N2C(C(=O)O)=C(S[C@@H]3CN[C@H](C(=O)N(C)C)C3)[C@H](C)[C@H]12 [Meropenem, reference compound]
IC50 (BlaC; [4]): 141 nM | IC50 (BlaC; [5]): 40.7 nM | IC50 (LdtMt2 [1]; [6]): 1350 nM | IC50 (LdtMt2 [1]; pIC50 LdtMt2 (mean ± SD)): 10000 nM

CCC(C)SSc1ncc[nH]1 (stereo not shown) [PX-12, reference compound]
pIC50 BlaC (mean ± SD) (BlaC; [4]): < 4.0 | pIC50 LdtMt2 (mean ± SD) (LdtMt2 [1]): 5.9 ± 0.01 and 6.09 ± 0.03

N#Cn1c(-c2ccc(-c3nccs3)cc2)nc2ccccc21 [Compound 29]
LE (ligand efficiency) (LdtMt2 [1]): 0.51 | kinact/KI (LdtMt2 [2]): 1164 ± 105 M⁻¹ s⁻¹ | ΔTm: difference in melting point of LdtMt2 relative to unreacted LdtMt2 (43.8 °C) (LdtMt2 [3]): -0.9 | Tm: melting point of LdtMt2 after pre-incubation with the compound (LdtMt2 [3]; in °C (unit assumed)): 42.9 ± 0.19

Cc1ccc(C=CC(=O)N2CC(=O)Nc3ccccc32)o1 [Compound 10]
LE (ligand efficiency) (LdtMt2 [1]): 0.54

C[C@@H](O)[C@H]1C(=O)N2C(C(=O)O)=C(S[C@@H]3CN[C@H](CNS(N)(=O)=O)C3)[C@H](C)[C@H]12 [Doripenem, reference compound]
IC50 (BlaC; [4]): 41.7 nM | IC50 (BlaC; [5]): 14.1 nM | IC50 (LdtMt2 [1]; pIC50 LdtMt2 (mean ± SD)): 5010 nM and 1700 nM

Cc1onc(-c2c(F)cccc2Cl)c1C(=O)N[C@@H]1C(=O)N2[C@@H]1SC(C)(C)[C@@H]2C(=O)O [Flucloxacillin, reference compound]
IC50 (BlaC; [4]): 135 nM | IC50 (BlaC; [5]): 77.6 nM | IC50 (LdtMt2 [1]; [6]): 1050 nM | IC50 (LdtMt2 [1]; pIC50 LdtMt2 (mean ± SD)): 25100 nM

O=c1c2ccccc2[se]n1-c1ccccc1 [Ebselen]
IC50 (BlaC; [4]): 1510 nM | IC50 (BlaC; [5]): 302 nM | IC50 (LdtMt2 [1]; [6]): 214 nM

CN(C)C(=S)SSC(=S)N(C)C [Thiram, reference compound]
IC50 (BlaC; [4]): > 100000 nM | IC50 (LdtMt2 [1]; [6]): 170 nM | IC50 (LdtMt2 [1]; pIC50 LdtMt2 (mean ± SD)): 158 nM

O=[Se](O)c1ccccc1 [Benzeneseleninic acid, reference compound]
IC50 (BlaC; [4]): > 100000 nM | IC50 (LdtMt2 [1]; [6]): 3550 nM | IC50 (LdtMt2 [1]; pIC50 LdtMt2 (mean ± SD)): 10000 nM

O=C(NC1CCNCC1)[C@@H]1CC[C@@H]2CN1C(=O)N2OS(=O)(=O)O [Relebactam]
IC50 (BlaC; [4]): 33100 nM | IC50 (BlaC; [5]): 3980 nM | IC50 (LdtMt2 [1]; pIC50 LdtMt2 (mean ± SD)): > 100000 nM

N#Cn1c(N2CCOCC2)nc2ccccc21 [Compound 28]
pIC50 BlaC (BlaC; Table S5 HTS hits, 30 minute inhibitor pre-incubation, two independent repeats): < 4.0 | LE (ligand efficiency) (LdtMt2 [1]): 0.66 | ΔTm: difference in melting point of LdtMt2 relative to unreacted LdtMt2 (43.8 °C) (LdtMt2 [3]): -1.5 | Tm: melting point of LdtMt2 after pre-incubation with the compound (LdtMt2 [3]; in °C (unit assumed)): 42.3 ± 0.09
